{"source": "patent US20260224526A1", "about": "“SALT OF DIPEPTIDE COMPOUND, PREPARATION METHOD THEREOF, AND USE THEREOF” (ZHEJIANG HUAHAI PHARMACEUTICAL CO., LTD., priority 2023, published 2026)", "key": {"deep vein thrombosis": {"tested_on": "deep vein thrombosis", "experiment": "Rats model of deep vein thrombosis", "assay_type": "in vivo, SD rats", "details": "for antithrombotic efficacy, Form I and dabigatran etexilate compared: at the same dose, oral", "description": "Experimental animals: SD rats (body weight 220 to 250 g, sex: male)\nThe thrombus was removed and weighed."}, "[1]": {"experiment": "Blood drug level in rats model of deep vein thrombosis", "assay_type": "in vivo, SD rats"}, "[2]": {"experiment": "Moisture adsorption content / hygroscopicity", "assay_type": "physicochemical"}, "Solubility": {"experiment": "Solubility", "assay_type": "physicochemical"}, "[3]": {"experiment": "DVS (Dynamic Vapor Sorption) water absorption", "assay_type": "physicochemical"}, "pKa": {"experiment": "pKa", "assay_type": "physicochemical"}, "Partition coefficient": {"experiment": "Partition coefficient", "assay_type": "physicochemical"}, "[4]": {"experiment": "Form III stability: mechanical milling and storage at 60° C./sealed condition", "assay_type": "physicochemical"}, "[5]": {"details": "intravenous infusion of 0.1 mg/kg/h in rats"}}, "note": "Counter-ions that a name gives are not always drawn. Like-named read-outs stand apart in the source and are kept apart here."}
{"compound": "CC(C)C[C@@H](NCC(=O)O)C(=O)N1CCC[C@H]1C(=O)NCc1ccc(C(=N)N)cc1", "note": "[Compound V]", "values": [{"measurement": "antithrombotic effect compared with oral 5 mg/kg Form I", "setting": "deep vein thrombosis; [5]", "value": "comparable"}, {"measurement": "blood drug levels of compound V compared with oral 5 mg/kg Form I", "setting": "[1]; [5]", "value": "comparable"}]}
{"compound": "CCCCCCOC(=O)NC(=N)c1ccc(CNC(=O)[C@@H]2CCCN2C(=O)[C@@H](CC(C)C)NCC(=O)OCC)cc1", "note": "[Form A of the monohydrochloride]", "values": [{"measurement": "Moisture adsorption content", "setting": "[2]", "value": 0.5, "unit": "wt %"}]}
{"compound": "CCCCCCOC(=O)NC(=N)c1ccc(CNC(=O)[C@@H]2CCCN2C(=O)[C@@H](CC(C)C)NCC(=O)OCC)cc1", "note": "[free alkali of the compound of formula II]", "values": [{"measurement": "aqueous solubility", "setting": "Solubility; water", "value": "insoluble in water"}]}
{"compound": "CCCCCCOC(=O)NC(=N)c1ccc(CNC(=O)[C@@H]2CCCN2C(=O)[C@@H](CC(C)C)NCC(=O)OCC)cc1", "note": "[Form I]", "values": [{"measurement": "Thrombosis inhibition rate", "setting": "deep vein thrombosis; 10 mg/kg, oral gavage, rats", "value": 70.0, "unit": "%"}, {"measurement": "antithrombotic efficacy, Form I and dabigatran etexilate compared", "setting": "deep vein thrombosis; rats", "value": "basically equivalent"}, {"measurement": "solubility", "setting": "Solubility; BA, organic solvent or mixture, read-out: Solubility", "value": "< 0.3", "unit": "mg/mL"}, {"measurement": "solubility", "setting": "Solubility; acetonitrile and dichloromethane", "value": "9.0, 10.0, 11.0, 12.0 and 13.0), readily soluble"}, {"measurement": "solubility", "setting": "Solubility; buffer solutions with different pH values (1.2, 2.0, 3.0, 4.0, 5.0, 6.0, 7.0, 8.0, 9.0, 10.0, 11.0, 12.0 and 13.0)", "value": "Highly soluble in buffer solutions with different"}, {"measurement": "solubility", "setting": "Solubility; organic solvent or mixture, AC (Acetic acid), read-out: Solubility", "value": "> 250", "unit": "mg/mL"}, {"measurement": "solubility", "setting": "Solubility; organic solvent or mixture, ACN (Acetonitrile), read-out: Solubility", "value": "> 250", "unit": "mg/mL"}, {"measurement": "solubility", "setting": "Solubility; organic solvent or mixture, DMSO (Dimethyl sulfoxide), read-out: Solubility", "value": "> 250", "unit": "mg/mL"}, {"measurement": "solubility", "setting": "Solubility; organic solvent or mixture, Diox (1,4-Dioxane), read-out: Solubility", "value": "~125", "unit": "mg/mL"}, {"measurement": "solubility", "setting": "Solubility; organic solvent or mixture, EtOH (Ethanol), read-out: Solubility", "value": "> 250", "unit": "mg/mL"}, {"measurement": "solubility", "setting": "Solubility; organic solvent or mixture, Hept (n-Heptane), read-out: Solubility", "value": "< 0.3", "unit": "mg/mL"}, {"measurement": "solubility", "setting": "Solubility; organic solvent or mixture, IPA (Isopropyl alcohol), read-out: Solubility", "value": "~167", "unit": "mg/mL"}, {"measurement": "solubility", "setting": "Solubility; organic solvent or mixture, IPAc (Isopropyl acetate), read-out: Solubility", "value": "~0.5", "unit": "mg/mL"}, {"measurement": "solubility", "setting": "Solubility; organic solvent or mixture, MEK (Methyl ethyl ketone), read-out: Solubility", "value": "~1.6", "unit": "mg/mL"}, {"measurement": "solubility", "setting": "Solubility; organic solvent or mixture, MTBE (Methyl tert-butyl ether), read-out: Solubility", "value": "< 0.3", "unit": "mg/mL"}, {"measurement": "solubility", "setting": "Solubility; organic solvent or mixture, NBA (n-Butanol), read-out: Solubility", "value": "~167", "unit": "mg/mL"}, {"measurement": "solubility", "setting": "Solubility; organic solvent or mixture, THF (Tetrahydrofuran), read-out: Solubility", "value": "~11.1", "unit": "mg/mL"}, {"measurement": "solubility", "setting": "Solubility; organic solvent or mixture, Tol (Toluene), read-out: Solubility", "value": "< 0.3", "unit": "mg/mL"}, {"measurement": "solubility", "setting": "Solubility; water, read-out: Solubility", "value": "> 250", "unit": "mg/mL"}, {"measurement": "form of sample after DVS test", "setting": "[3]; after DVS test", "value": "converted to amorphous form"}, {"measurement": "behaviour of sample at high humidity (DVS)", "setting": "[3]; high humidity", "value": "undergoes deliquescence"}, {"measurement": "pKa1", "setting": "pKa", "value": 4.94}, {"measurement": "pKa2", "setting": "pKa", "value": 5.54}, {"measurement": "pKa3", "setting": "pKa", "value": 10.61}, {"measurement": "Hygroscopicity", "setting": "[2]", "value": "Hygroscopic"}, {"measurement": "blood drug levels of compound V", "setting": "[1]; oral administration of 2.5 mg/kg of Form I to rats", "value": 190.1, "unit": "ng/mL"}, {"measurement": "blood drug levels of compound V", "setting": "[1]; oral administration of 5 mg/kg of Form I to rats", "value": 181.3, "unit": "ng/mL"}, {"measurement": "blood drug levels of compound V", "setting": "[1]; oral administration of 10 mg/kg of Form I to rats", "value": 341.9, "unit": "ng/mL"}, {"measurement": "blood drug levels of compound V", "setting": "[1]; oral administration of 20 mg/kg of Form I to rats", "value": 609.7, "unit": "ng/mL"}, {"measurement": "logP", "setting": "Partition coefficient", "value": "> 3.38"}, {"measurement": "Log D7.4", "setting": "Partition coefficient; pH 7.4", "value": 2.06}]}
{"compound": "CCCCCCOC(=O)NC(=N)c1ccc(CNC(=O)[C@@H]2CCCN2C(=O)[C@@H](CC(C)C)NCC(=O)OCC)cc1", "note": "[dihydrochloride]", "values": [{"measurement": "aqueous solubility", "setting": "Solubility; water", "value": "excellent aqueous solubility"}]}
{"compound": "CCCCCCOC(=O)N=C(N)c1ccc(NCc2nc3cc(C(=O)N(CCC(=O)OCC)c4ccccn4)ccc3n2C)cc1", "note": "[Dabigatran etexilate, reference compound]", "values": [{"measurement": "antithrombotic efficacy, Form I and dabigatran etexilate compared", "setting": "deep vein thrombosis; rats", "value": "basically equivalent"}]}
{"compound": "CCCCCCOC(=O)NC(=N)c1ccc(CNC(=O)[C@@H]2CCCN2C(=O)[C@@H](CC(C)C)NCC(=O)OCC)cc1", "note": "[Form III]", "values": [{"measurement": "purity after storage", "setting": "[4]; 60° C./sealed condition for 7 days", "value": 89.35, "unit": "%"}, {"measurement": "purity before storage", "setting": "[4]; before storage at 60° C./sealed condition", "value": 95.81, "unit": "%"}]}
{"compound": "CCCCCCOC(=O)NC(=N)c1ccc(CNC(=O)[C@@H]2CCCN2C(=O)[C@@H](CC(C)C)NCC(=O)OCC)cc1", "note": "[monohydrochloride]", "values": [{"measurement": "aqueous solubility", "setting": "Solubility; water", "value": "excellent aqueous solubility"}]}
{"compound": "CCCCCCOC(=O)NC(=N)c1ccc(CNC(=O)[C@@H]2CCCN2C(=O)[C@@H](CC(C)C)NCC(=O)OCC)cc1", "note": "[Form B of the monohydrochloride]", "values": [{"measurement": "Hygroscopicity", "setting": "[2]", "value": "(Hygroscopic)"}, {"measurement": "Moisture adsorption content", "setting": "[2]", "value": 3.0, "unit": "wt %"}]}
